The source of these data is publication PMC6357004 (Viruses, 2018).

The structures appear in SMILES notation.

Assay [1] addresses neuraminidase (NA) of recombinant influenza B/Phuket/3073/2013 WT virus (Influenza B virus, UniProt A0A1S5RAG6). The class given is biochemical, influenza B/Phuket/3073/2013 virus.
Assay [2] has as its system N294S mutant. The conditions noted are these: cited from earlier work.

Usually IC50 stands for the concentration that gives 50% inhibition.

neuraminidase (NA) of recombinant influenza B/Phuket/3073/2013 WT virus, sequence (A0A1S5RAG6 entry or part of it, added parts left off): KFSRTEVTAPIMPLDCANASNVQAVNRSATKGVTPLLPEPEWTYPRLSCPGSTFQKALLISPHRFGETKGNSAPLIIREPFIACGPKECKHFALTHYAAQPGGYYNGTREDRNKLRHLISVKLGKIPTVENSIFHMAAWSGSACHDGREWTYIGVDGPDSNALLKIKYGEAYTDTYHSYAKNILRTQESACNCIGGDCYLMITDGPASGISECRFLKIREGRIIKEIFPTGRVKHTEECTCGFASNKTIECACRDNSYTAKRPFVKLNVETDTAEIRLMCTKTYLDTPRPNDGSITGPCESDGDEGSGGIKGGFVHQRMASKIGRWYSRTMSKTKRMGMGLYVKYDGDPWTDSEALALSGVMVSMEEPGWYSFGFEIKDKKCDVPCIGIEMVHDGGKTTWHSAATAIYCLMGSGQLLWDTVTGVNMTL

With `CCC(CC)[C@H](NC(C)=O)[C@@H]1[C@H](O)[C@@H](C(=O)O)C[C@H]1N=C(N)N` [Peramivir, peramivir], the “Folds (fold changes according to WT virus)” value in assay [1] came to 1 fold. Moreover, the 50% inhibitory concentration (IC50) in assay [1] (mean of two independent experiments in duplicate, read-out: Neuraminidase Inhibitors IC50 values) is 0.74 nM. On to `CC(=O)N[C@H]1[C@H]([C@H](O)[C@H](O)CO)OC(C(=O)O)=C[C@@H]1N=C(N)N` [Zanamivir, zanamivir], for which the susceptibility phenotype result in assay [2] is recorded as “susceptible”.
